Source: patent publication US20040163143A1, “Method for efficiently producing transgenic plant using auxin precursor” (NIPPON PAPER INDUSTRIES CO., LTD., priority 2002, published 2004)

Experiments:
[1] = test system: E. globulus hypocotyl sections; test: E. globulus gene introduction test, vector pIPT10 (ipt only + GUS), adventitious bud redifferentiation and GUS staining; format: cell-based, Eucalyptus globulus; conditions: for B/A Redifferentiation ratio / C/A Gene introduction ratio / C/B Selection efficiency: section basis
Protocol: Seeds of E. globulus from Chile were sterilized by soaking in 70% ethanol for about 1 minute and then soaking with stirring in a 2% aqueous sodium hypochlorite solution for about 4 hours, washed thoroughly with sterile water, inoculated on an MS agar medium to which 0.5 mg/l zeatin had been added and stored in a refrigerator at 4° C. for 2 days to accelerate germination, and then the germination was carried out by culturing at 25° C. under light conditions of about 10 μmol/m^2/s in light intensity. One to two weeks after the inoculation of the seeds onto the germination medium, hypocotyls were collected by cutting out apical buds, cotyledons and roots of the germinated seedlings, and the hypocotyls were cut into sections of about 5 mm to be used as samples for gene introduction and subjected to the following test. A. tumefaciens EHA105 introduced with the plasmid pIAH6 in the above item I was cultured overnight in the YEB liquid medium and then diluted to OD630 =0.5 with EG basal medium, and the sections of hypocotyl prepared in the above were soaked in the cell suspension. Next, each of the sections after removing excess cell suspension was co-cultured with Agrobacterium on an agar medium (agar 8.5 g/l) prepared by adding 1.0 mg/l zeatin, 0.05 mg/l NAA and 40 mg/l acetosyringone to the EG basal medium, at 25° C. for 3 days in the dark to thereby infect each section with the pIAH6-introduced Agrobacterium. In this case, a modified MS medium having an ammonia nitrogen/nitrate nitrogen concentration ratio of 1:3 (5 mM NH4, 15 mM NO3) was supplemented with 20 g/l sucrose and used as the EG basal medium. The sections after infection culturing were put on an EG basal agar medium (agar 8.5 g/l) supplemented with 500 mg/l ticarcillin and 1 μM or 10 μM of an auxin precursor analogue NAM, and the culturing was continued at 25° C. under light conditions of 30 to 40 μmol/m^2/s in light intensity while sub-culturing at an interval of 2 weeks using the same medium. Among these sections, the quicker ones redifferentiated adventitious buds after about 2 months of the Agrobacterium infection. Three months after the Agrobacterium infection, in order to examine expression of the GUS gene used as a model of the desired gene, the redifferentiated adventitious buds were subjected to a GUS staining test in accordance with the method of Jefferson et al. (Plant Mol. Biol. Rep., 5: 387-405 (1987)), and the degree of formation of desired gene-introduced adventitious buds was judged by examining the number of stained adventitious buds (the number of adventitious buds expressing the desired gene). An E. globulus gene introduction test was carried out in the same manner as in Example 1, except that the hypocotyl sections after the Agrobacterium infection were cultured using the EG basal agar medium (agar 8.5 g/l) supplemented with 500 mg/l ticarcillin and 0 μM, 1 μM or 10 μM NAA as auxin. An E. globulus gene introduction test was carried out in the same manner as in Example 1 or Comparative Example 1, except that a plasmid pIPT10 having only the ipt gene as the selectable marker gene was used as the vector. Also, the vector also has the GUS gene as a model of the desired gene. Structure of T-DNA region of the pIPT10 used in this case is shown in FIG. 2, and results of the gene introduction test are shown in Table 3.

[2] = test system: stem sections of a high rooting clone of E. globulus; test: gene introduction test on high rooting clone of E. globulus, vector pIAH6, GUS staining; format: cell-based, Eucalyptus globulus; conditions: NAM 1 μM
Protocol: Definite buds of a high rooting clone of E. globulus from Chile were aseptically grown using a medium prepared by adding 0.5 mg/l zeatin to the Y basal medium of Example 2, and the elongated stems were cut into sections of 5 mm to be used as samples for gene introduction and infected with the plasmid pIAH6-introduced Agrobacterium in the same manner as in Example 1. The sections after infection culturing were put on an EG basal agar medium (agar 8.5 g/l) supplemented with 500 mg/l ticarcillin and 1 μM of an auxin precursor analogue NAM, and the culturing was continued at 25° C. under light conditions of 30 to 40 μmol/m^2/s in light intensity while sub-culturing at an interval of 2 weeks using the same medium. Four months after the Agrobacterium infection, the redifferentiated adventitious buds were subjected to a GUS staining test in accordance with the above method of Jefferson et al., and the degree of formation of desired gene-introduced adventitious buds was judged.

## NC(=O)Cc1cccc2ccccc12 [NAM, naphthaleneacetic acid amide]
[1]; additive 1 μM in medium
  B Adventitious bud differentiated (number of sections): 2 number of sections
  C GUS + adventitious bud differentiated (number of sections): 0 number of sections
  B/A Redifferentiation ratio: 4.4%
  C/A Gene introduction ratio: 0.0%
  C/B Selection efficiency: 0%
[1]; additive 10 μM in medium
  B Adventitious bud differentiated (number of sections): 0 number of sections
  C GUS + adventitious bud differentiated (number of sections): 0 number of sections
  B/A Redifferentiation ratio: 0%
  C/A Gene introduction ratio: 0.0%
  C/B Selection efficiency: 0%
[2]; among 40 stem sections
  sections whose buds had the desired gene introduced (GUS staining): 3 sections
[2]; among 40 stem sections, 4 months after infection
  sections from which adventitious buds were differentiated: 5 sections
[2]; section basis
  gene introduction ratio into adventitious buds: 7.5%
  redifferentiation ratio of adventitious buds: 12.5%
  selection efficiency: 60.0%
